Results as given in PubChem BioAssay (NCI).
Values joined by “and” are separate entries in the source; they are usually repeats but may differ in a detail not shown here. Equal values may be shown once.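 Tested at 5 concentrations; 48 h exposure; 96-well plates; endpoints linearly interpolated, else capped at highest concentration. At the GI50, growth is halved. Definition used: TGI = concentration required for complete inhibition of growth.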

How the values were obtained:
Test in all cases: NCI anticancer screen, dose series, 48 h
[1] = system: CAKI-1 renal
[2] = system: HCT-116 colon
[3] = system: HL-60(TB) leukemia
[4] = system: MOLT-4 leukemia
[5] = system: NCI-H460 lung
[6] = system: RPMI-8226 leukemia
[7] = system: SW-620 colon
[8] = system: HS 578T breast
[9] = system: MDA-MB-435
[10] = system: PC-3 prostate

Row | Structure (SMILES) | TGI [1] [µM] | TGI [2] [µM] | TGI [3] [µM] | TGI [4] [µM] | TGI [5] [µM] | TGI [6] | TGI [7] [µM] | GI50 [1] | GI50 [2] [µM] | GI50 [3] [µM] | GI50 [8] [µM] | TGI [8] [µM] | GI50 [9] [µM] | TGI [9] [µM] | GI50 [10] [µM] | TGI [10] [µM] | GI50 [6] [µM] | GI50 [4] [µM] | GI50 [5] | GI50 [7] [µM]
1 | CC[As](CC)SCC1OC(OC(C)=O)C(OC(C)=O)C(OC(C)=O)C1OC(C)=O (configuration not stated) | 10.4 | 32.1 | 19.2 | 48.2 | 31.3 | 36.2 µM | 16.3 | – | – | – | – | – | – | – | – | – | – | – | – | –
2 | CCN(CC)CC(O)c1cc(-c2ccc(Cl)cc2)nc2c(C)c(Cl)ccc12 (configuration not stated) | 2.69 | 3.18 | 4.57 | – | – | 5.71 µM | – | 1.29 µM | 1.66 | 2.1 | 1.87 | 4.33 | 1.74 | 3.29 | 1.6 | 2.97 | 2.41 | – | – | –
3 | O=C1c2ccc3c4c(ccc(c24)C(=O)N1CCNCc1ccccc1)C(=O)N(CCNCc1ccccc1)C3=O | 4.91 | 2.89 | 4.91 | > 100 | 4.26 | 5.12 µM | 1.37 | 1.88 µM | 1.42 | 2.09 | 1.83 | 5.27 | – | – | – | – | 2 | 3.96 | 1.8 µM | 0.306
4 | O=C(NN1C(=O)CSC1c1c(Cl)cccc1Cl)C(O)c1ccccc1 (configuration not stated) | > 100 | > 100 | – | 80.7 | > 100 | > 100 µM | > 100 | 23.9 µM | 36.7 | – | > 100 | > 100 | 25 | > 100 | 29.6 | > 100 | 43.8 | 25 | 40.4 µM | 71.8
5 | CC(=O)Nc1cc2c3c(cccc3c1)-c1ccccc1-2 | 23.8 | > 100 | > 100 | > 100 | > 100 | – | > 100 | 4 µM | > 100 | 0.25 | 29.3 | 94.6 | 30 | > 100 | 14.8 | > 100 | – | 5.72 | 29.6 µM | 95.6
6 | COc1ccc2nc3ccccc3c(NCCN(CCCl)CCCl)c2c1 | 0.937 | 2.08 | 1.1 | 0.758 | – | – | 2.51 | – | – | – | – | – | – | – | – | – | – | – | – | –
7 | CC(=O)O[C@@H]1CC[C@@]2(C)C(=O)C34C[C@@]5(C)C([C@@H](C)CCCC(C)C)CCC5(C)[C@](O)(O3)C(=O)[C@H]4C2C1(C)C (some centres not stated) | 29.8 | 27 | 25.3 | 28.8 | 18.5 | 38.9 µM | 24.5 | – | – | – | – | – | – | – | – | – | – | – | – | –
8 | Cc1cc(Cl)cc2c1NC(=O)C2(O)C(C(=O)c1ccccc1)c1ccccc1 (configuration not stated) | > 100 | 79.3 | 52.1 | 70.9 | > 100 | 64.5 µM and 42.4 µM | > 100 | 35.7 µM and > 100 µM | – | – | – | – | – | – | – | – | – | – | > 100 µM and 36.9 µM | –
9 | CC1(C)C(CC(=O)O)CCCC1CC(=O)O (configuration not stated) | > 100 | > 100 | – | > 100 | – | > 100 µM | > 100 | – | – | – | – | > 100 | – | > 100 | – | > 100 | – | – | – | –
